Reference: the C3SDB collision cross section collection

Conditions: [M+H-H2O]+; instrument: TW; calibrated with polyalanine and drug standards

| collision cross section (N2) [Å²] | Structure (SMILES) |
| --- | --- |
| 150.8 | CC1(C)CC2C1CCC1(C)OC1CCC2(C)O (stereo not drawn) [2-HYDROXY-5 (6)EPOXY-TETRAHYDROCARYOPHYLLENE] |
| 209 | CC(C)CCC[C@@H](C)[C@H]1CC[C@H]2[C@@H]3CC[C@H]4C[C@@H](O)CC[C@]4(C)[C@H]3CC[C@]12C [5alpha-CHOLESTANOL] |
| 231.7 | CCCCCC(=O)Cc1cc(O)cc(O)c1C(=O)Oc1cc(CC(=O)CCCCC)c(C(=O)O)c(OC)c1 [ARTHONIOIC ACID] |

| Structure (SMILES) | collision cross section (N2) [Å²] |
| --- | --- |
| C[C@@H](N)[C@@H](O)c1ccccc1 [1R,2S-PHENYLPROPYLAMINE] | 127.8 |

Same assay, conditions: [M+H]+; instrument: TW; calibrated with polyalanine and drug standards

| Structure (SMILES) | collision cross section (N2) [Å²] |
| --- | --- |
| CC1(C)C2CC(=O)[C@]3(C)C(CC[C@@]4(C)[C@H](c5ccoc5)OC(=O)[C@H]5O[C@]543)[C@@]2(C)C(=O)C[C@H]1O (stereo partly drawn) [1,7-DIDEACETOXY-1,7-DIOXO-3-DEACETYLKHIVORIN] | 199.7 |
| CC(=O)O[C@@H]1CC(=O)[C@@]2(C)C(CC(=O)[C@]3(C)C2CC[C@@]2(C)[C@H](c4ccoc4)OC(=O)C4OC423)C1(C)C (stereo partly drawn) [1,7-DIDEACETOXY-1,7-DIOXOKHIVORIN] | 210.9 |
| COc1ccccc1N1CCNCC1 [1-(2-METHOXYPHENYL)PIPERAZINE] | 140.5 |
| O=C(/C=C/c1ccccc1)c1ccc(O)cc1O [2',4'-DIHYDROXYCHALCONE] | 153.5 |
| CCOc1ccc(C(=O)c2ccc(OC)c(O)c2O)cc1 [2,3-DIHYDROXY-4-METHOXY-4'-ETHOXYBENZOPHENONE] | 164 |
| COC1=CC(=O)C=C(OC)C1=O [2,6-DIMETHOXYQUINONE] | 129.5 |
| S=c1[nH]c2ccccc2s1 [2-MERCAPTOBENZOTHIAZOLE] | 126.4 |
| COc1ccc2oc3ccccc3c(=O)c2c1 [2-METHOXYXANTHONE] | 142.4 |
| Cc1[nH]c2ccccc2c1CN(C)C [2-METHYL GRAMINE] | 140.6 |
| O=c1cccc2ccc(O)c(O)c2c1O [3,4,6-trihydroxy-5H-benzo[a]cyclohepten-5-one] | 134.7 |
| COc1ccc2c(=O)c(OC)c(-c3ccccc3)oc2c1 [3,7-DIMETHOXYFLAVONE] | 160.7 |
| CC(=O)OC1CC[C@@]2(C)C(CC[C@H]3[C@@H]4CC=C(C(C)=O)[C@@]4(C)C(=O)C[C@@H]32)C1 (stereo partly drawn) [3-ACETOXYPREGN-16-EN-12,20-DIONE] | 189.5 |
| NCCc1ccc(O)c(O)c1 [3-HYDROXYTYRAMINE] | 127.7 |
| C=C1C2CC[C@@]3(C)[C@H](c4ccoc4)OC(=O)C[C@]13O[C@H]1CC(O)C(C)(C)C(CC(=O)OC)[C@@]21C (stereo partly drawn) [3alpha-HYDROXY-3-DEOXYANGOLENSIC ACID METHYL ESTER] | 204.6 |
| O=C(/C=C/c1ccccc1)c1ccc(O)cc1 [4'-HYDROXYCHALCONE] | 150.8 |
| COc1ccc(-c2cc(=O)c3ccccc3o2)cc1 [4'-METHOXYFLAVONE] | 152.1 |

| Structure (SMILES) | collision cross section (N2) [Å²] |
| --- | --- |
| CCCCOc1cc(CC2CNC(=O)N2)ccc1OC (stereo not drawn) [4-(3-BUTOXY-4-METHOXYBENZYL)IMIDAZOLIDIN-2-ONE] | 174 |
| Cc1cc(O)cc(=O)o1 [4-HYDROXY-6-METHYLPYRAN-2-ONE] | 119.8 |
| O=C(O)CCCN1C(=O)c2cccc3cccc(c23)C1=O [4-NAPHTHALIMIDOBUTYRIC ACID] | 156.5 |
| Cc1cc(=O)oc2cc(O)cc(O)c12 [5,7-DIHYDROXY-4-METHYLCOUMARIN] | 134.4 |
| O=c1cc(-c2ccc(O)cc2)oc2ccc(O)cc12 [6,4'-DIHYDROXYFLAVONE] | 152.7 |
| NC(=O)c1ccc(N)nc1 [6-AMINONICOTINAMIDE] | 125.7 |
| CN1[C@H]2CC(=O)C[C@@H]1C(O)C2 (stereo partly drawn) [6-HYDROXYTROPINONE] | 131.6 |
| Oc1cccc2cccnc12 [8-HYDROXYQUINOLINE] | 123.6 |
| CC(=O)O[C@@H]1C[C@@]2(C)C(CC[C@@H]2C(C)=O)C2CCC3=CC(=O)CC[C@]3(C)C21 (stereo partly drawn) [11a-ACETOXYPROGESTERONE] | 190.6 |
| C=CC[C@]1(O)CC[C@H]2[C@@H]3CCC4=CC(=O)CCC4=C3C=C[C@@]21C [ALTRENOGEST] | 177 |
| CC(CC(C(N)=O)(c1ccccc1)c1ccccc1)N(C)C (stereo not drawn) [AMINOPENTAMIDE] | 169.6 |
| N#C[C@H](O[C@@H]1O[C@H](CO[C@@H]2O[C@H](CO)[C@@H](O)[C@H](O)[C@H]2O)[C@@H](O)[C@H](O)[C@H]1O)c1ccccc1 [AMYGDALIN] | 200.6 |
| C[C@]12C=CC(=O)C=C1CC[C@@H]1[C@@H]2CC[C@]2(C)C(=O)CC[C@@H]12 [ANDROSTA-1,4-DIEN-3,17-DIONE] | 168.4 |
| C=CCc1cc(OC)c2c(c1OC)OCO2 [APIOLE] | 146.1 |
| Nc1ccc([As](=O)(O)O)cc1 [ARSANILIC ACID] | 133.2 |
| C[N+]1([O-])C2CCC1CC(OC(=O)C(CO)c1ccccc1)C2 (stereo not drawn) [ATROPINE OXIDE] | 172.4 |

Results, then the compound that gave them:

| collision cross section (N2) [Å²] | Structure (SMILES) |
| --- | --- |
| 207.6 | C=C1C2CC[C@@]3(C)[C@H](c4ccoc4)OC(=O)C[C@]13O[C@H]1CC(=O)C(C)(C)[C@H](C(O)C(=O)OC)[C@@]21C (stereo partly drawn) [6-HYDROXYANGOLENSIC ACID METHYL ESTER] |
| 148.9 | O=c1cc(-c2ccccc2)oc2cc(O)ccc12 [7-HYDROXYFLAVONE] |
| 201.8 | CC(=O)[C@H]1CC[C@H]2[C@@H]3CCC4=CC(=O)CC[C@]4(C)[C@H]3C(OC(=O)CCC(=O)O)C[C@]12C (stereo partly drawn) [11alpha-HYDROXYPROGESTERONE HEMISUCCINATE] |
| 153 | NC(=O)c1ncn([C@@H]2O[C@H](CO)[C@@H](O)[C@H]2O)c1N [ACADESINE] |
| 231 | C[C@H]1O[C@H](O[C@H]2[C@H](O)[C@@H](O)[C@@H](O[C@H]3[C@H](O)[C@@H](O)C(O)O[C@@H]3CO)O[C@@H]2CO)[C@H](O)[C@@H](O)[C@@H]1N[C@H]1C=C(CO)[C@@H](O)[C@H](O)[C@H]1O (stereo partly drawn) [ACARBOSE] |
| 129.7 | CC(=O)Nc1ccc(O)cc1 [ACETAMINOPHEN] |
| 125 | CC(=O)Nc1ccccc1 [ACETANILIDE] |
| 194.1 | CCCCC[C@H](CC(=O)NO)C(=O)N[C@H](C(=O)N1CCC[C@H]1CO)C(C)C [ACTINONIN] |
| 158.4 | CC(C)(C)NCC(O)c1ccc(O)c(CO)c1 (stereo not drawn) [ALBUTEROL] |
| 193.9 | COc1cc2nc(N(C)CCCNC(=O)C3CCCO3)nc(N)c2cc1OC (stereo not drawn) [ALFLUZOSIN] |
| 162.8 | COc1cc(OC)c2c(c1)OC(c1ccccc1)CC2=O (stereo not drawn) [ALPINETIN METHYL ETHER] |
| 181.5 | C=CCSCC1Nc2cc(Cl)c(S(N)(=O)=O)cc2S(=O)(=O)N1 (stereo not drawn) [ALTHIAZIDE] |
| 136.8 | Nc1c2ccccc2nc2ccccc12 [AMINACRINE] |
| 204.4 | Nc1nc(N)c2nc(CNc3ccc(C(=O)N[C@@H](CCC(=O)O)C(=O)O)cc3)cnc2n1 [AMINOPTERIN] |
| 191.9 | CCN(CC)Cc1cc(Nc2ccnc3cc(Cl)ccc23)ccc1O [AMODIAQUINE] |
| 142.6 | Cc1c(N)c(=O)n(-c2ccccc2)n1C [AMPYRONE] |
| 163 | COc1ccc(-c2cc(=O)c3c(O)cc(OC)cc3o2)cc1 [APIGENIN DIMETHYL ETHER] |
| 156 | O=c1cc(-c2ccc(O)cc2)oc2cc(O)cc(O)c12 [APIGENIN] |
| 263.5 | CC[C@H]1OC(=O)[C@H](C)[C@@H](O[C@H]2C[C@@](C)(OC)[C@@H](O)[C@H](C)O2)[C@H](C)[C@@H](O[C@@H]2O[C@H](C)C[C@H](N(C)C)[C@H]2O)[C@](C)(O)C[C@@H](C)CN(C)[C@H](C)[C@@H](O)[C@]1(C)O [AZITHROMYCIN] |
| 197.4 | C[C@H]1[C@H](NC(=O)/C(=N\OC(C)(C)C(=O)O)c2csc(N)n2)C(=O)N1S(=O)(=O)O [AZTREONAM] |
| 176 | CCc1oc2ccccc2c1C(=O)c1cc(Br)c(O)c(Br)c1 [BENZBROMARONE] |
| 145.9 | CCOC(=O)c1ccc(N)cc1 [BENZOCAINE] |
| 122.2 | O=C(O)c1ccccc1 [BENZOIC ACID] |

Same assay, conditions: [M+Na]+; instrument: TW; calibrated with polyalanine and drug standards

| Structure (SMILES) | collision cross section (N2) [Å²] |
| --- | --- |
| CCCCCCCCCCCCCCCC(=O)OCC(O)CO (stereo not drawn) [1-MONOPALMITIN] | 195.9 |
| C[C@@H]1CC[C@H]2[C@@H](C)C(=O)O[C@@H]3O[C@@]4(C)CC[C@@H]1[C@]32OO4 [ARTEMISININ] | 168.1 |
| C/C=C(\C)C(=O)O[C@H]1C[C@@H](OC(C)=O)[C@@]2(C(=O)OC)CO[C@H]3[C@@H](O)[C@@](C)([C@]45O[C@@]4(C)[C@H]4C[C@@H]5O[C@@H]5OC=C[C@@]54O)[C@H]4[C@]1(CO[C@]4(O)C(=O)OC)[C@@H]32 [AZADIRACHTIN] | 241.4 |

Further lines, results first:

| collision cross section (N2) [Å²] | Structure (SMILES) |
| --- | --- |
| 141.7 | CC(=O)N[C@@H](CCC(=O)O)C(=O)O [ACETYLGLUTAMIC ACID] |
| 159.3 | CC(=O)N[C@@H](Cc1c[nH]c2ccccc12)C(N)=O [ACETYLTRYPTOPHANAMIDE] |
| 213.1 | CCCCCCCCCCCCCCCCC(C(=O)O)C(O)(CC(=O)O)C(=O)O (stereo not drawn) [AGARIC ACID] |
| 175.9 | O=C(O)CCCCCCCC(O)C(O)CCCCCCO (stereo not drawn) [ALEURETIC ACID] |

Same assay, conditions: [M]+; instrument: TW; calibrated with polyalanine and drug standards

| collision cross section (N2) [Å²] | Structure (SMILES) |
| --- | --- |
| 193 | CCCCCCCCCCCC[N+](C)(C)Cc1ccccc1 [BENZALKONIUM CHLORIDE C12] |
| 214.8 | CCCCCCCCCCCCCCCC[N+](C)(C)Cc1ccccc1 [BENZALKONIUM CHLORIDE C16] |
